Assay results: ChEMBL document CHEMBL1201862, “PubChem BioAssay data set” (2004)
Blank lines part the entries; values can stand above or below the compound they belong to. The source made the active and inactive calls.

What was measured:
[1] = target: T1, Sentrin-specific protease 8 (Homo sapiens, UniProt Q96LD8); format: functional
T1 sequence (Q96LD8 whole entry): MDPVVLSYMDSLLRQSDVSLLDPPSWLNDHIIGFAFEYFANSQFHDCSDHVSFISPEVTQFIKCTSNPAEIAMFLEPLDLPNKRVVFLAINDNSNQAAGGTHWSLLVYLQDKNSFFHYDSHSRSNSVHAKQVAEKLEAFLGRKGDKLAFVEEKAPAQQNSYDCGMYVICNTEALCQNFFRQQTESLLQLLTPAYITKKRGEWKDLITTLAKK

[2] = target: T1, Sentrin-specific protease 8; format: functional; remark: listed apart in the source
Cytochrome P450 3A4 = Cytochrome P450 3A4 (Homo sapiens, UniProt P08684);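 note: CYP3A4 tested as one member of a cytochrome P450 panel screen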
Cytochrome P450 2D6 = Cytochrome P450 2D6 (Homo sapiens, UniProt P10635);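 note: CYP2D6 member of a cytochrome P450 panel assay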
Chain of Cytochrome P450 2D6 (P10635 whole entry): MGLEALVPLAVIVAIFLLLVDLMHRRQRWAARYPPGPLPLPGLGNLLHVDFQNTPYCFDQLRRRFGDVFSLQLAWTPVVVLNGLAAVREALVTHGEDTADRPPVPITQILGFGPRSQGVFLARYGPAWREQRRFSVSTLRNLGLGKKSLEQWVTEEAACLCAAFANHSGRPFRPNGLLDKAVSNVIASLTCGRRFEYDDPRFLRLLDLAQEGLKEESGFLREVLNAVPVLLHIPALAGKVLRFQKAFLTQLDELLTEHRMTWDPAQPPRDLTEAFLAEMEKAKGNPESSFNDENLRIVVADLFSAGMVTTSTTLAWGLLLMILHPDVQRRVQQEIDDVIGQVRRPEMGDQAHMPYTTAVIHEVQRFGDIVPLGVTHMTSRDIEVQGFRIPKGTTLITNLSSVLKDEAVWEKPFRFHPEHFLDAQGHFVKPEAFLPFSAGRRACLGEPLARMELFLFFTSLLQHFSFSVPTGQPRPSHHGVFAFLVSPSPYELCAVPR

[3] = target: DNA repair and recombination protein RAD54-like (Homo sapiens, UniProt Q92698); assay: inhibitors of human RAD54 branch migration, confirmation, biochemical, fluorescence, cherry-picked samples, dose series (AID 651657); format: functional
Chain of DNA repair and recombination protein RAD54-like (Q92698 whole entry): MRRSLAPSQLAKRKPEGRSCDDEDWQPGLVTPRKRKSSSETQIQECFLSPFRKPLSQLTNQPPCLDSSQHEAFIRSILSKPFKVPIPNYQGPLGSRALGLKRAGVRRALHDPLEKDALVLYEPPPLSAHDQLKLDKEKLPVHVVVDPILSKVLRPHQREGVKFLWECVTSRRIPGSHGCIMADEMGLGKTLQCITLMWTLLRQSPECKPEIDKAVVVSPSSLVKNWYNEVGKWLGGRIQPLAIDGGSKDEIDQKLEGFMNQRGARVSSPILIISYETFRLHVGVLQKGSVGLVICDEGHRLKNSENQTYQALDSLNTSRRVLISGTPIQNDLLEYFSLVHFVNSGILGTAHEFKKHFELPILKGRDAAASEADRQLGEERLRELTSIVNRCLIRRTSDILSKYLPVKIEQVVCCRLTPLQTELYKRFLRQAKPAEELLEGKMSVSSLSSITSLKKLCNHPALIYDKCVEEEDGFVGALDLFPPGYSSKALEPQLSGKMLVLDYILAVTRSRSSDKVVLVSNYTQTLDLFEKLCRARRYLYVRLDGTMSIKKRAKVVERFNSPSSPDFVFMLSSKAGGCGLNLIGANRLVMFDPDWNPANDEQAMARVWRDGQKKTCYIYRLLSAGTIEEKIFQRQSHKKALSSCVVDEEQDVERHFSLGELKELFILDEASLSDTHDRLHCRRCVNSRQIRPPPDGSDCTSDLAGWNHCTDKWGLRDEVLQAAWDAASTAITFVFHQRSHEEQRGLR

Steroidogenic factor 1 = Steroidogenic factor 1 (Homo sapiens, UniProt Q13285); assay: Counterscreen for inverse agonists of the liver receptor homolog-1 (LRH-1; NR5A2): Luminescence-based cell-based high throughput dose response assay to identify inverse agonists of the Steroidogenic Factor 1 Nuclear Receptor (SF1; NR5A1).; format: functional
Chain of Steroidogenic factor 1 (Q13285 whole entry): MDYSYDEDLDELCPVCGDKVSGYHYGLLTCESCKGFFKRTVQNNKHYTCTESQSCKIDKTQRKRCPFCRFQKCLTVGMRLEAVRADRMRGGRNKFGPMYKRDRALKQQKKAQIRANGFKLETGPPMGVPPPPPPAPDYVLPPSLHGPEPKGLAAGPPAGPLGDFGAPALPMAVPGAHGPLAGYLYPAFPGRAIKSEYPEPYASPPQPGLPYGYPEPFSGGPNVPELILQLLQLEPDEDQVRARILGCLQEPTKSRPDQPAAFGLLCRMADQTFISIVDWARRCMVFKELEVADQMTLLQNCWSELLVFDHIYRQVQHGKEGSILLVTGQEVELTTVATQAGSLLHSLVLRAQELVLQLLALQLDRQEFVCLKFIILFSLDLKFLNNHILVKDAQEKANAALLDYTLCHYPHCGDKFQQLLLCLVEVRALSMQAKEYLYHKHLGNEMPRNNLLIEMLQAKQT

CHO-K1 = assay: Counterscreen for antagonists of the orexin 1 receptor (OX1R; HCRTR1): Homogeneous time resolved fluorescence (HTRF)-based cell-based dose response assay to identify antagonists of the parental CHO-K1 cell line. [Related pubchem assays (depositor defined):AID434989, AID435008, AID463079, AID485270, AID492963, AID492964, AID492965, AID493232, AID504699, AID504701]; format: functional; settings: Cricetulus griseus;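 note: potency for inhibition of ATP-stimulated IP1 production as antagonists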
[4] = target: T2, Orexin/Hypocretin receptor type 1 (Homo sapiens, UniProt O43613); assay: Homogeneous Time Resolved Fluorescence (HTRF)-based cell-based high throughput dose response assay for antagonists of the orexin 1 receptor (OX1R; HCRTR1). [Related pubchem assays (depositor defined):AID434989, AID435008, AID463079, AID485270, AID492963, AID492964, AID492965, AID493232, AID504717, AID504718]; format: functional
T2 sequence (O43613 whole entry): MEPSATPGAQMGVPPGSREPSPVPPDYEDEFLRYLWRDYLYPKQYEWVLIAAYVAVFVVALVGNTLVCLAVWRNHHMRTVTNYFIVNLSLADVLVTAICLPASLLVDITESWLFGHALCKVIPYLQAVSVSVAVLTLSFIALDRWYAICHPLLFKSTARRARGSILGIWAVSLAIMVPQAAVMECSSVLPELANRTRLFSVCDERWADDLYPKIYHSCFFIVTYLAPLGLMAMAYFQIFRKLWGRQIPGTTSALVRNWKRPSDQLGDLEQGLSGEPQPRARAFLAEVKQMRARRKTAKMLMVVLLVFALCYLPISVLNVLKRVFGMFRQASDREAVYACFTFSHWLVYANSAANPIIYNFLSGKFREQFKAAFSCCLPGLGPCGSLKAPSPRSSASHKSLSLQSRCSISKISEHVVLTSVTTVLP

[5] = Counterscreen for antagonists of the orexin 1 receptor (OX1R; HCRTR1): Fluorescence-based cell-based high throughput dose response assay to identify antagonists of the parental CHO cell line. [Related pubchem assays (depositor defined):AID434989, AID435008, AID463079, AID485270, AID492963, AID492964, AID492965, AID493232, AID504699, AID504701]; format: functional
[6] = target: T2, Orexin/Hypocretin receptor type 1; assay: Fluorescence-based cell-based high throughput dose response assay for antagonists of the orexin 1 receptor (OX1R; HCRTR1). [Related pubchem assays (depositor defined):AID434989, AID435008, AID463079, AID485270, AID492963, AID492964, AID492965, AID493232, AID504717, AID504718]; format: functional
[7] = HEp-2 cell cytotoxicity, dose response, cytotoxicity control for RSV inhibitor project, HTS (AID 2410); format: functional; settings: human respiratory syncytial virus
[8] = target: Eukaryotic translation initiation factor 4E (Mus musculus, UniProt P63073); assay: eIF4E–eIF4G protein interaction inhibitors, dose response, biochemical, TR-FRET (AID 855); format: functional;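 note: potency for disrupting eIF4E binding to eIF4GI seen as loss of FRET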
Chain of Eukaryotic translation initiation factor 4E (P63073 whole entry): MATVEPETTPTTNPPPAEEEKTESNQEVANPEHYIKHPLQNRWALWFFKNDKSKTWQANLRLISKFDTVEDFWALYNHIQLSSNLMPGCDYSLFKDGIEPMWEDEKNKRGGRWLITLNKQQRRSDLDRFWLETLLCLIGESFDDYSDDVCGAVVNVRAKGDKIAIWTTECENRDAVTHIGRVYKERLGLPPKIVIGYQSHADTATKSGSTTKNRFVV

Orexin receptor type 2 [9] = target: T3, Orexin receptor type 2 (Homo sapiens, UniProt O43614); assay: Counterscreen assay for antagonists of the orexin 1 receptor (OX1R; HCRTR1): Homogeneous Time Resolved Fluorescence (HTRF)-based cell-based dose response assay for antagonists of the orexin 2 receptor (OX2R; HCRTR2), run by assay provider.; format: functional
T3 sequence (O43614 whole entry): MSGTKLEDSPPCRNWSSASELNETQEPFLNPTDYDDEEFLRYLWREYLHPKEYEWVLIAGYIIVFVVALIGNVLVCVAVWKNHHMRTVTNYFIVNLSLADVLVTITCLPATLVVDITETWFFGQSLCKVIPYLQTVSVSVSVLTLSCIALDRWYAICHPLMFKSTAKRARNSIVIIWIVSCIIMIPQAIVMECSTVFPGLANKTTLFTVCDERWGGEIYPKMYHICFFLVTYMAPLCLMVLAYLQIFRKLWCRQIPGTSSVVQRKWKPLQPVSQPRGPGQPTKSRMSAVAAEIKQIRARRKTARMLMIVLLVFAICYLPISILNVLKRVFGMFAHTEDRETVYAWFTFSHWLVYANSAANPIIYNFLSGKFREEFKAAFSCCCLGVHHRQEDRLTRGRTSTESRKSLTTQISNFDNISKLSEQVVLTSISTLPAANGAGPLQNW

Orexin receptor type 2 [10] = target: T3, Orexin receptor type 2; assay: Counterscreen assay for antagonists of the orexin 1 receptor (OX1R; HCRTR1): Fluorescence-based cell-based dose response assay for antagonists of the orexin 2 receptor (OX2R; HCRTR2), run by assay provider.; format: functional
[11] = target: Mitochondrial peptide methionine sulfoxide reductase (Bos taurus, UniProt P54149); format: functional;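 note: absorbance read-out, biochemical high-throughput dose-response screen for MsrA inhibitors, confirmatory; recombinant bovine MsrA coupled to E. coli TrxB with NADPH and selenocystamine; potency is for inhibitors of MsrA activity on DMSO substrate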
Chain of Mitochondrial peptide methionine sulfoxide reductase (P54149 whole entry): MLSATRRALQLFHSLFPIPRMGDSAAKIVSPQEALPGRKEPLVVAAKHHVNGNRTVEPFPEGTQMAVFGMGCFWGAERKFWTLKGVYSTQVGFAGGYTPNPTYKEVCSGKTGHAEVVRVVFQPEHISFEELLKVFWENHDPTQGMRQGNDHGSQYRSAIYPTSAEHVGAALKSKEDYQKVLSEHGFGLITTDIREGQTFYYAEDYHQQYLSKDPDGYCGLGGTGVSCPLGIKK

[12] = target: Ras and Rab interactor 1/Tyrosine-protein kinase ABL1 (Homo sapiens, UniProt P00519+Q13671); format: functional;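 note: biochemical TR-FRET dose-response test measuring inhibition of binding between Rin1 and Abl proteins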
Chain of Ras and Rab interactor 1/Tyrosine-protein kinase ABL1 (P00519 whole entry): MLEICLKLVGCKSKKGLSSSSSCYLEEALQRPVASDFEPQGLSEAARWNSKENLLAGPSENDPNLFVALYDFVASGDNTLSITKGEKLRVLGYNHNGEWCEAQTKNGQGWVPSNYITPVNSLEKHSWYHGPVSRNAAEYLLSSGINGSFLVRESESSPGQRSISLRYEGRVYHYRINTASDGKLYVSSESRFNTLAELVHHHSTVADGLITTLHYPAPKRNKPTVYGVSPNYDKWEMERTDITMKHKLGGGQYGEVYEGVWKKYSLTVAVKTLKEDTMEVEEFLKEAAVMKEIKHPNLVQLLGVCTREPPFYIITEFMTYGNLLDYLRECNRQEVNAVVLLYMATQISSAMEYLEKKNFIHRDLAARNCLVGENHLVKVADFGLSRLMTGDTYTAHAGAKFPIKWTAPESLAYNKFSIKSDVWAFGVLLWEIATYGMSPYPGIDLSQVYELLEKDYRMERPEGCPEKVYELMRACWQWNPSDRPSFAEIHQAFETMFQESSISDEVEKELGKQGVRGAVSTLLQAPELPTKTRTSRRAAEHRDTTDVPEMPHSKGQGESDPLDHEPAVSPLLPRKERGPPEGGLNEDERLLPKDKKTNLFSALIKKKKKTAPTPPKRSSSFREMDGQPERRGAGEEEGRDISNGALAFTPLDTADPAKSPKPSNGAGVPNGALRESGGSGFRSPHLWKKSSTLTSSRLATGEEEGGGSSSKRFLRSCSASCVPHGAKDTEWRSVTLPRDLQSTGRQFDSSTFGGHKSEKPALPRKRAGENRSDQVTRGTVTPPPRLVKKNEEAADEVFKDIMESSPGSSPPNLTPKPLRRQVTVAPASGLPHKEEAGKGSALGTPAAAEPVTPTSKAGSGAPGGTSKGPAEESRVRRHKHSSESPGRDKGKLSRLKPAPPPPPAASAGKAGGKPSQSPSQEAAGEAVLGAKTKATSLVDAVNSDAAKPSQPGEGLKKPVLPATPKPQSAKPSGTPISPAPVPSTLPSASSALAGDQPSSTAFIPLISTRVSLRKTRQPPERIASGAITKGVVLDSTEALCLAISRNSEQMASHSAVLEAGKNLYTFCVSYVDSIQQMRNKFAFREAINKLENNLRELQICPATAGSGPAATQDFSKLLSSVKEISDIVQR
Chain of Ras and Rab interactor 1/Tyrosine-protein kinase ABL1 (Q13671 whole entry): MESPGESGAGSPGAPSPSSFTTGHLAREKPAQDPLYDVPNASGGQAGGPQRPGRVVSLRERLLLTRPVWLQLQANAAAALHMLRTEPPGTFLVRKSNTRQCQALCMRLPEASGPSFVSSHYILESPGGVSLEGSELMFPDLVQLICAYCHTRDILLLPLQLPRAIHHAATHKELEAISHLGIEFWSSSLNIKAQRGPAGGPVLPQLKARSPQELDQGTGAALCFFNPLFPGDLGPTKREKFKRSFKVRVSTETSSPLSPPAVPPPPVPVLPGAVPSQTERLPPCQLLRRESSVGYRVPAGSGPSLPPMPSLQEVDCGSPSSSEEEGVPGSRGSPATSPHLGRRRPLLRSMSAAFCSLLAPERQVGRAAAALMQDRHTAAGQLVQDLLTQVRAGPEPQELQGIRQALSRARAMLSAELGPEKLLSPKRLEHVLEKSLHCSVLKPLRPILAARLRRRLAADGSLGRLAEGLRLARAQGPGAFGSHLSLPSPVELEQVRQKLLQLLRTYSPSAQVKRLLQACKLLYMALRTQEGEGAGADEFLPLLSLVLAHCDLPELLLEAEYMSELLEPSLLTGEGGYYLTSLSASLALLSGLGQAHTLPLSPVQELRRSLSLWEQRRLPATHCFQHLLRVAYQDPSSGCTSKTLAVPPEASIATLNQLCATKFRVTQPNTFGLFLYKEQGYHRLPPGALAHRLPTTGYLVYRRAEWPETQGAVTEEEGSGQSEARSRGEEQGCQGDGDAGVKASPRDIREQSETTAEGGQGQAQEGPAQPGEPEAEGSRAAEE

[13] = target: DNA (cytosine-5)-methyltransferase 1 (Homo sapiens, UniProt P26358); assay: DNMT1 methyltransferase inhibitors, confirmation, biochemical, fluorescent molecular beacon (AID 602386); format: functional
Vero = assay: host cell cytotoxicity of antiviral hits, dose response, cytotoxicity control for West Nile virus antiviral project, secondary assay (AID 1650); format: functional; settings: Chlorocebus sabaeus
[14] = target: Tyrosine-protein phosphatase non-receptor type 5 (Homo sapiens, UniProt P54829); assay: STEP phosphatase inhibitors, confirmation, biochemical, fluorescence intensity, uHTS hits (AID 602372); format: functional; settings: read-out: IC50_Mean
Chain of Tyrosine-protein phosphatase non-receptor type 5 (P54829 whole entry): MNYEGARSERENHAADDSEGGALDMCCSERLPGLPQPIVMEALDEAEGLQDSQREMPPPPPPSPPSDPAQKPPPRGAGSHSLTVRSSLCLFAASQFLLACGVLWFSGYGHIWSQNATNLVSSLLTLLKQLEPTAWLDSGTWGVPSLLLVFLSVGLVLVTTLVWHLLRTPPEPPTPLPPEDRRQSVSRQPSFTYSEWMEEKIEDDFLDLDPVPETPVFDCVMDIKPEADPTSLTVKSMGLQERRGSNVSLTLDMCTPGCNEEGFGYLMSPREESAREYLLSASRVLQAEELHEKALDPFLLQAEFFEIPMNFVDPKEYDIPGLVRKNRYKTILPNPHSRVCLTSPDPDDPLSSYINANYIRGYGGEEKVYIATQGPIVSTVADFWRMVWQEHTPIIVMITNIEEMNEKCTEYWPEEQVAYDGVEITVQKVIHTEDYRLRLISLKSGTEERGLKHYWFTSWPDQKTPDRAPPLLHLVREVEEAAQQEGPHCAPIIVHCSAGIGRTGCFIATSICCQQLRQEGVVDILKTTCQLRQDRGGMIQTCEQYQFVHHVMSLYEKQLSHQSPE

[15] = target: Dual specificity protein phosphatase 3 (Homo sapiens, UniProt P51452); assay: VHR phosphatase inhibition, dose response, selectivity assay for STEP inhibitor project, biochemical (AID 602374); format: functional; settings: read-out: IC50_Mean
Chain of Dual specificity protein phosphatase 3 (P51452 whole entry): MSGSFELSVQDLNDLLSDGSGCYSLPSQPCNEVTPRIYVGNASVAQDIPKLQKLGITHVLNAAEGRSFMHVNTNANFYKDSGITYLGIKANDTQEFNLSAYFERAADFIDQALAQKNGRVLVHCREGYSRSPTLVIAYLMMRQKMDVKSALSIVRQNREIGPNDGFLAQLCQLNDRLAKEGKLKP

[16] = target: Tyrosine-protein phosphatase non-receptor type 11 (Homo sapiens, UniProt Q06124); assay: SHP2 phosphatase inhibition, dose response, selectivity assay for STEP inhibitor project, biochemical (AID 602367); format: functional; settings: read-out: IC50_Mean
[17] = target: T4, Low molecular weight phosphotyrosine protein phosphatase (Homo sapiens, UniProt P24666); format: functional; settings: read-out: IC50_Mean;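 note: Dose-response confirmation assay measuring inhibition of LMPTP enzyme activity by fluorescence intensity read-out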
T4 sequence (P24666 whole entry): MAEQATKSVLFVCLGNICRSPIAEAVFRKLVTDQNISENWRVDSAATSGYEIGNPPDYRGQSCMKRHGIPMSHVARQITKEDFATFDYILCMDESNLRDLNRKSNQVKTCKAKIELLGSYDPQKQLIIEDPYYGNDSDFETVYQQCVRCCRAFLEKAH

cells [18] = format: functional, cell-based
[19] = target: T5, Carboxy-terminal domain RNA polymerase II polypeptide A small phosphatase 1 (Homo sapiens, UniProt Q9GZU7); assay: inhibitors of CTDSP1, concentration-response testing, biochemical assay, absorbance-based, actives from ultra-high-throughput screening (AID 540297); format: functional
T5 sequence (Q9GZU7 whole entry): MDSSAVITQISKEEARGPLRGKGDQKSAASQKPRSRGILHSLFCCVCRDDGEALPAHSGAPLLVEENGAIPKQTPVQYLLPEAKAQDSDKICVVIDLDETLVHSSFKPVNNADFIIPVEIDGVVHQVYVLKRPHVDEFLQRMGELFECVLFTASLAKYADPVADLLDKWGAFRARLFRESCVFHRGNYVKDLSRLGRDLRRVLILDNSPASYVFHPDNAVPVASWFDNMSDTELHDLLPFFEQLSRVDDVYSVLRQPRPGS

cells [20] = format: functional, cell-based; remark: listed apart in the source
[21] = target: Luciferin 4-monooxygenase (Photinus pyralis, UniProt P08659); assay: firefly luciferase enzyme inhibitors, dose response, biochemical, luminescence (AID 1891)
[22] = Luminescence Cell-Based Dose Confirmation HTS to Identify Inhibitors of Platelet Dense Granule Release. [Related pubchem assays: 1663 (Primary HTS), 1678 (Summary of Project)]; format: functional
Cytochrome P450 2C9 = Cytochrome P450 2C9 (Homo sapiens, UniProt P11712)
[23] = target: T6, DNA repair protein RAD52 homolog (Homo sapiens, UniProt P43351); format: functional, biochemical
T6 sequence (P43351 whole entry): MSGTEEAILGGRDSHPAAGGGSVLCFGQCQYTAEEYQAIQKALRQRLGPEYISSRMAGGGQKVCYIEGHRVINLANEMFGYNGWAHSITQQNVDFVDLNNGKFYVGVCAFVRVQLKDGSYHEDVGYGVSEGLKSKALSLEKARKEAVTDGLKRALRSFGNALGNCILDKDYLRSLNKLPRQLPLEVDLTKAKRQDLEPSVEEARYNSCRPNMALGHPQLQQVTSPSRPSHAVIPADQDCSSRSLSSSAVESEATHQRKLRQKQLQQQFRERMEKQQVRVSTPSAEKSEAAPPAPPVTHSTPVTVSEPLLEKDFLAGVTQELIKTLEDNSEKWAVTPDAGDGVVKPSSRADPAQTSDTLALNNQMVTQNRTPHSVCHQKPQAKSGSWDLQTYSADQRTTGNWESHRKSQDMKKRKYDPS

Structure (SMILES): COC(=O)CCCC1=CC2=CC(=O)C(C)(OC(=O)c3cccs3)C(=O)C2=CN1CCc1ccccn1 (stereo not drawn)
- IC50 [1]: 9.96 µM (active)
- IC50 [2]: 20.9 µM (active)

Structure (SMILES): COc1cccc(N2CCN(CC(=O)Nc3ccc(-n4cnnn4)cc3)CC2)c1
- IC50 (Steroidogenic factor 1): 6.28 µM (active)

Structure (SMILES): Cc1cnc(NC(=O)c2ccc(-c3nc4ccccc4s3)o2)s1
- IC50 (CHO-K1): 62 µM (inactive)
- IC50 [4]: 333 nM (active)
- IC50 [5]: > 49.8 µM (inactive)
- IC50 [6]: 1.97 µM (active)
- CC50 [7]: 30.7 µM (active)
- IC50 [8]: > 64 µM (inactive)
- IC50 (Orexin receptor type 2 [9]): > 50 µM (inactive)
- IC50 (Orexin receptor type 2 [10]): > 88.8 µM (inactive)

Structure (SMILES): COC(=O)CCCC1=CC2=C(c3ccccc3)C(=O)C(C)(OC(=O)C3CCCC3)C(=O)C2=CN1C1CCCCC1 (stereo not drawn)
- IC50 [1]: 6.2 µM (active)
- IC50 [2]: 13 µM (active)

Structure (SMILES): O=C(N/N=C/c1ccc(F)cc1)c1cc(-c2ccc3c(c2)OCO3)[nH]n1
- IC50 [14]: > 80 µM (inactive)
- IC50 [15]: 6.61 µM (active)
- EC50 (cells [18]): > 350 µM (not active)
- IC50 [19]: 9.8 µM (active)
- EC50 (cells [20]): > 350 µM (not active)
- IC50 [16]: 5.14 µM (active)

Structure (SMILES): COc1ccc(/C=N/Nc2snc(SC)c2C#N)cc1OC
- IC50 (CHO-K1): > 66.2 µM (inactive)
- IC50 [4]: 1930 nM (active)
- IC50 [5]: > 49.8 µM (inactive)
- EC50 [21]: 46.8 µM (active)
- IC50 [6]: 4.85 µM (active)
- AC50 (Cytochrome P450 2D6): 0.282 µM (inconclusive)
- IC50 (Orexin receptor type 2 [9]): > 50 µM (inactive)
- EC50 [22]: > 112 µM (not active)
- IC50 (Orexin receptor type 2 [10]): > 88.8 µM (inactive)
- AC50 (Cytochrome P450 2C9): 12.6 µM (inconclusive)

Second part, led by results:

- AC50 (Cytochrome P450 3A4): 20 µM (inconclusive)
- AC50 (Cytochrome P450 2D6): 14.1 µM (inconclusive)
- AC50 [3]: 19.9 µM (active)
Structure (SMILES): CCN1CCN(c2nn3c(=O)c4ccccc4nc3c3ccccc23)CC1

- IC50 [11]: 85.5 µM (inactive)
Structure (SMILES): COc1ccc2cc(-c3n[nH]cc3CN3CCCC3c3nonc3C)ccc2c1 (stereo not drawn)

- IC50 [12]: 8.07 µM (active)
Structure (SMILES): COc1ccc(S(=O)(=O)N2CCCCCC2)cc1C(=O)Nc1ccc(C(=O)N(C)C)cc1

- IC50 [13]: 5.12 µM (active)
Structure (SMILES): O=C(CSc1nc(O)c2ccccc2n1)Nc1nc(-c2ccc(Br)cc2)cs1
- CC50 (Vero): 35.9 µM (active)

- IC50 [12]: 9.82 µM (active)
Structure (SMILES): CCOc1ccc(CCNC(=O)CN2C(=O)c3cccnc3Oc3ccc(C)cc32)cc1OCC

- IC50 [14]: 29.4 µM (inactive)
- IC50 [15]: 1.48 µM (active)
- IC50 [16]: 6.29 µM (active)
Structure (SMILES): Sc1ncnc2c1ncn2-c1ccc(Cl)cc1

- IC50 [17]: 9.3 µM (active)
Structure (SMILES): COc1ccc2ncccc2c1Cc1c(OC)ccc2ncccc12

- AC50 [23]: 9.04 µM (active)
- AC50 [3]: 47.8 µM (active)
Structure (SMILES): CN(C)CCNC(=O)c1cccc(-c2cnc3c(NC=O)cc(-c4ccc(C(=O)N5CCOCC5)cc4)cn23)c1
